The term IC50 denotes the concentration that inhibits the measured activity by half.

T1 sequence (P42336 whole entry): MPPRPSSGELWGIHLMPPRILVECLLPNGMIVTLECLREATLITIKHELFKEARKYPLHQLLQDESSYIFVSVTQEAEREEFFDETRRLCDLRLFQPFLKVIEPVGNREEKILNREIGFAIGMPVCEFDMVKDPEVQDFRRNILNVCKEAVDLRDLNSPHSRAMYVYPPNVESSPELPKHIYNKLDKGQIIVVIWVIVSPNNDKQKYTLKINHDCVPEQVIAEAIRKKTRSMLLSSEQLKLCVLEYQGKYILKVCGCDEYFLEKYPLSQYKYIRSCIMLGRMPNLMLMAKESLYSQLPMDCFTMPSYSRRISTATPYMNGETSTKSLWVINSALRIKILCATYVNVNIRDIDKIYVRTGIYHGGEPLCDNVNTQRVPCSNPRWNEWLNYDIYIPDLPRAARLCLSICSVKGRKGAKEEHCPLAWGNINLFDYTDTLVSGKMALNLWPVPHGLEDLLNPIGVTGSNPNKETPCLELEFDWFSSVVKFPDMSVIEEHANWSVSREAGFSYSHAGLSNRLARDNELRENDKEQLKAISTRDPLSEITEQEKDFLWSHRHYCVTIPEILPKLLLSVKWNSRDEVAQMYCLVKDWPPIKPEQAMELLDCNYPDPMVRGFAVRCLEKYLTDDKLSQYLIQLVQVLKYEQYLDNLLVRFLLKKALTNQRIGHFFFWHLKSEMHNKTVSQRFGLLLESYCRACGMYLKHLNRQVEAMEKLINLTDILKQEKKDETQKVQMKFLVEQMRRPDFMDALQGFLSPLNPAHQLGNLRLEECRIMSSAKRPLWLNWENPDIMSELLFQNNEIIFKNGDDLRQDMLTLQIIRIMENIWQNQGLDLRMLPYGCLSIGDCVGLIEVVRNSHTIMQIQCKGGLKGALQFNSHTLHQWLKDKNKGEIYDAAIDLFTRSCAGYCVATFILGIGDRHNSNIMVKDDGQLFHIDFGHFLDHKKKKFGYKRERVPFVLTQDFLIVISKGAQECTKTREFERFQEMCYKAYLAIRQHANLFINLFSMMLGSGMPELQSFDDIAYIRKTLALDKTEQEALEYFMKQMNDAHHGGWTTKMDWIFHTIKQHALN
T1 sequence (P27986 whole entry partner): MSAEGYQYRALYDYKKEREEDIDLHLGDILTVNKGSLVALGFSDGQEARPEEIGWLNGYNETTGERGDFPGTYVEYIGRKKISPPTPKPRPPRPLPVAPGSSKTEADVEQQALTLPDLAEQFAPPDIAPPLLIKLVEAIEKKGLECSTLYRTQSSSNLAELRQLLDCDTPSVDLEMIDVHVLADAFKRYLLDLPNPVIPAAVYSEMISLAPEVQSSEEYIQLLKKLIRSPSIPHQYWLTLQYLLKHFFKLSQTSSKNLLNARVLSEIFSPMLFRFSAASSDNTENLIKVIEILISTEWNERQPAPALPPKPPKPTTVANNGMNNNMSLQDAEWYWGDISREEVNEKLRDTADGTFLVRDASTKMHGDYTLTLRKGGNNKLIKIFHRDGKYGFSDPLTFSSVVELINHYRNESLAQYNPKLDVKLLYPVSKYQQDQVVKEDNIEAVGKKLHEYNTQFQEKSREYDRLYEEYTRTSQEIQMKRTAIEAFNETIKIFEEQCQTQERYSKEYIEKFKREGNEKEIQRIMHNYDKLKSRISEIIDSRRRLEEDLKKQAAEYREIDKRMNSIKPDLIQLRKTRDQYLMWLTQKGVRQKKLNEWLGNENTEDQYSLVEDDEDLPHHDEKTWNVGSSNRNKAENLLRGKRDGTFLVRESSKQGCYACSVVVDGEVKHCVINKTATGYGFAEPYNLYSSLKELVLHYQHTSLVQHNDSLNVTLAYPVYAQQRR

The assay has as its target T1, PI3Kα (Homo sapiens, UniProt P42336).
T1 construct: Full length p110 subunits of PI3K α, β and δ, N-terminally labeled with polyHis tag; polyHis (N); made in house; host or cells: Sf9 insect cells (baculovirus)
Nature of the assay: In vitro PI3K AlphaScreen assay, PI3Kα. Type of assay: biochemical. Conditions: PI(4,5)P2 substrate, 20 minutes at room temperature, read-out: P13Kalpha IC50 um. As to the method:
The PI3K AlphaScreen® assay (PerkinElmer, Waltham, Mass.) measures the activity of a panel of four phosphoinositide 3-kinases: PI3Kα, PI3KIβ, PI3Kγ, and PI3Kδ. Each of these enzymes phosphorylates the 3′-hydroxyl group on phosphatidylinositiol (4,5)-bisphosphate (PIP2) to produce phosphatidylinositol (3,4,5)-trisphosphate (PIP3). This phosphorylation activity is measured using a GST-tagged PIP3 binding protein (Echelon Biosciences, Salt Lake City, Utah), an anti-GST-tagged Acceptor bead, and streptavidin-Donor bead. The interaction of biotinylated-PIP3 analog (IP4) and the PIP3 binding protein brings both Acceptor and Donor beads together producing, upon excitation of the Donor beads at 680 nm, a singlet oxygen species leading to the luminescent AlphaScreen® signal. When PIP3 is produced via phosphorylation of PIP2 by a PI3K, PIP3 competes with biotinylated-PIP3 analog (IP4) for binding to the PIP3 binding protein. In the absence of this interaction, proximity of the Donor and Acceptor beads is decreased, producing a loss of luminescent signal which is […] to PI3K activity. […] The enzyme reaction buffer is made using sterile water (Baxter, Deerfield, Ill.) and 50 mM Tris HCl pH 7, 14 mM MgCl2, 2 mM sodium cholate, and 100 mM NaCl. 2 mM DTT is added fresh the day of the experiment. The AlphaScreen® reaction buffer is made using sterile water and 10 mM Tris HCl pH 7.5, 150 mM NaCl, 0.10% Tween 20, and 30 mM EDTA. 1 mM DTT is added fresh the day of the experiment. The source plates for this assay are 384-well Greiner clear polypropylene plates containing test compounds at 5 mM and diluted 1:2 over 22 points. Columns 23 and 24 contain only DMSO as these are designated for positive and negative controls. Source plates are replicated into 384-well Optiplates (PerkinElmer, Waltham, Mass.), 0.5 μL/well, to make assay-ready plates. The different PI3K isoforms are each diluted in enzyme reaction buffer to 2× working solutions. PI3Kα is diluted to 1.6 nM, PI3Kβ is diluted to 0.8 nM, PI3Kγ is diluted to 15 nM, and PI3Kδ is diluted to 1.6 nM. Two different 2× substrate solutions are made in enzyme reaction buffer. In one solution, PI(4,5)P2 (Echelon Biosciences, Salt Lake City, Utah) is diluted to 10 μM and ATP is diluted to 20 μM. This solution is used in the assays testing PI3Kα and PI3Kβ. In a second solution, PI(4,5)P2 is diluted to 10 μM and ATP is diluted to 80 μM. This solution is used in the assays testing PI3Kγ and PI3Kδ. The AlphaScreen® reaction solutions are made using beads from the anti-GST AlphaScreen® kit (PerkinElmer, Waltham, Mass.). Two solutions are made in Alphascreen reaction buffer to 4× working concentrations. In one solution, biotinylated-IP4 (Echelon Biosciences, Salt Lake City, Utah) is diluted to 40 nM and streptavadin-Donor Beads are diluted to 80 μg/mL. In the second solution, PIP3-binding protein (Echelon Biosciences, Salt Lake City, Utah) is diluted to 40 nM and anti-GST-Acceptor Beads are diluted to 80 μg/mL. 10 μL/well of enzyme reaction buffer is added to Column 24 of the assay ready plates in place of enzyme. This is done for plates in the PI3Kα, β, and δ assays. Using a 384-well dispensing Multidrop (Titertek, Huntsville, Ala.), 10 μL/well of 2× enzyme (PI3Kα, β, δ) is added to Columns 1-23 of the appropriate assay ready plates (for PI3Kγ 10 μL is added to Columns 1-24). 10 μL/well of the appropriate substrate solution (the solution with 20 μM ATP for PI3Kα and β assays, and the solution with […] for PI3Kγ and δ assays) is then added to Columns 1-24 of the plates. Plates are then incubated at room temperature for 20 minutes. In the dark, 10 μL/well of the Donor Bead solution is added to Columns 1-24 of the plates to quench the enzyme reaction. The plates are incubated at room temperature for 30 minutes. Still in the dark, 10 μL/well of the Acceptor Bead solution is also added to Columns 1-24 of the plates. The plates are then incubated in the dark for 1.5 hours.
(In general: Alpha assays give light when donor and acceptor beads are brought close together.)
As for `CSc1cccc(-c2ccc3nc(Nc4cc[nH]n4)c(-c4nc(C)nc(N)n4)n3c2)c1` [Cpd 109, 3-(4-amino-6-methyl-1,3,5-triazin-2-yl)-6-(3-(methylsulfanyl)phenyl)-N-1H-pyrazol-3-ylimidazo[1,2-a]pyridin-2-amine], the half-inhibitory concentration (IC50) was found to be 470 nM.

For the compound `Cc1nc(N)cc(-c2c(Nc3cc[nH]n3)nc3cccnn23)n1` [Cpd 7, 3-(6-amino-2-methylpyrimidin-4-yl)-N-(1H-pyrazol-3-yl)imidazo[1,2-b]pyridazin-2-amine], the concentration for half-maximal inhibition (IC50) turned out to be 830 nM.

Consider `Cc1nc(N)nc(-c2c(Nc3cnn(C(=O)Oc4ccccc4)c3)nc3ccccn23)n1` [Cpd 209, phenyl 4-((3-(4-amino-6-methyl-1,3,5-triazin-2-yl)imidazo[1,2-a]pyridin-2-yl)amino)-1H-pyrazole-1-carboxylate], for which the half-maximal inhibitory concentration (IC50) turned out to be 830 nM.

Regarding `Cc1nc(NC(=O)N(C)C)cc(-c2c(Nc3cc[nH]n3)nc3cccnn23)n1` [Cpd 75, 1,1-dimethyl-3-(2-methyl-6-(2-(1H-pyrazol-3-ylamino)imidazo[1,2-b]pyridazin-3-yl)-4-pyrimidinyl)urea], the IC50 was determined as 42100 nM.

In the case of `Cc1nc(N)nc(-c2c(Nc3ccn[nH]3)nc3ccc(CCC(O)CO)cn23)n1` (stereo not shown) [Cpd 291, 4-(3-(4-amino-6-methyl-1,3,5-triazin-2-yl)-2-(1H-pyrazol-5-ylamino)-midazo[1,2-a]pyridin-6-yl)-1,2-butanediol], the half-maximal inhibitory concentration (IC50) turned out to be 170 nM.

With `Cc1nc(N)nc(-c2c(Nc3cc[nH]n3)nc3cc(C4=CCN(C(=O)OC(C)(C)C)CC4)ccn23)n1` [Cpd 183, tert-butyl 4-(3-(4-amino-6-methyl-1,3,5-triazin-2-yl)-2-(1H-pyrazol-3-ylamino)imidazo[1,2-a]pyridin-7-yl)-3,6-dihydro-1(2H)-pyridinecarboxylate], the IC50 was 50 nM.

For `CNC(=O)c1ccc(-c2ccc3nc(Nc4cc[nH]n4)c(-c4nc(C)nc(N)n4)n3c2)cc1F` [Cpd 99, 4-(3-(4-amino-6-methyl-1,3,5-triazin-2-yl)-2-(1H-pyrazol-3-ylamino)imidazo[1,2-a]pyridin-6-yl)-2-fluoro-N-methylbenzamide], the IC50 was determined as 110 nM.

With `CNS(=O)(=O)c1ccc(-c2ccc3nc(Nc4cc[nH]n4)c(-c4nc(C)nc(N)n4)n3c2)cc1` [Cpd 351, 4-(3-(4-amino-6-methyl-1,3,5-triazin-2-yl)-2-(1H-pyrazol-3-ylamino)imidazo[1,2-a]pyridin-6-yl)-N-methylbenzenesulfonamide], the IC50 was 480 nM.

As for `Cc1nc(Nc2cc(OCC(F)(F)F)cnn2)cc(-c2c(Nc3cc[nH]n3)nc3cccnn23)n1` [Cpd 60, 3-(2-methyl-6-((5-(2,2,2-trifluoroethoxy)-3-pyridazinyl)amino)-4-pyrimidinyl)-N-1H-pyrazol-3-ylimidazo[1,2-b]pyridazin-2-amine], the IC50 turned out to be 39200 nM.

As for `COc1ccc(Nc2cc(-c3c(Nc4cc[nH]n4)nc4cccnn34)nc(C)n2)cc1` [Cpd 33], the half-maximal inhibitory concentration (IC50) worked out at 660 nM.

On to `Cc1nc(N)cc(-c2c(Nc3ccc(NC(=O)Nc4ccncc4)cc3)nc3ccccn23)n1` [Cpd 57, 1-(4-((3-(6-amino-2-methyl-4-pyrimidinyl)imidazo[1,2-a]pyridin-2-yl)amino)phenyl)-3-(4-pyridinyl)urea], for which the IC50 is 10 nM.

Turning to `Cc1nc(NCC#N)cc(-c2c(Nc3cc[nH]n3)nc3cccnn23)n1` [Cpd 90], the 50% inhibitory concentration (IC50) was determined as 590 nM.

With `Cc1nc(N)nc(-c2c(Nc3cc[nH]n3)nc3ccc(-c4ccc5c(c4)CCNC5=O)cn23)n1` [Cpd 175, 6-(3-(4-amino-6-methyl-1,3,5-triazin-2-yl)-2-(1H-pyrazol-3-ylamino)imidazo[1,2-a]pyridin-6-yl)-3,4-dihydro-1(2H)-isoquinolinone], the IC50 came to 140 nM.

`Cc1nc(N)cc(-c2c(Nc3ccn(C)n3)nc3ccc(-c4cccc(S(C)(=O)=O)c4)cn23)n1` [Cpd 65, 3-(6-amino-2-methyl-4-pyrimidinyl)-N-(1-methyl-1H-pyrazol-3-yl)-6-(3-(methylsulfonyl)phenyl)imidazo[1,2-a]pyridin-2-amine]: the IC50 was 8690 nM.

With `Cc1nc(N)nc(-c2c(Nc3ccn(C(=O)Nc4ccccc4)n3)nc3ccccn23)n1` [Cpd 204, 3-((3-(4-amino-6-methyl-1,3,5-triazin-2-yl)imidazo[1,2-a]pyridin-2-yl)amino)-N-phenyl-1H-pyrazole-1-carboxamide], the IC50 was 3000 nM.

On to `Cc1nc(NC(=O)CC(F)(F)F)cc(-c2c(Nc3ccn(C)n3)nc3cccnn23)n1` [Cpd 134, 3,3,3-trifluoro-N-(2-methyl-6-(2-((1-methyl-1H-pyrazol-3-yl)amino)imidazo[1,2-b]pyridazin-3-yl)-4-pyrimidinyl)propanamide], for which the IC50 is 2080 nM.

In the case of `Cc1nc(N)cc(-c2c(Nc3cccc(N4CCN(C)CC4)c3)nc3cccnn23)n1` [Cpd 151, 3-(6-amino-2-methyl-4-pyrimidinyl)-N-(3-(4-methyl-1-piperazinyl)-phenyl)imidazo[1,2-b]pyridazin-2-amine], the IC50 amounted to 9520 nM.

Regarding `COCCOc1ccn2c(-c3nc(C)nc(N)n3)c(Nc3cc[nH]n3)nc2c1` [Cpd 185, 3-(4-amino-6-methyl-1,3,5-triazin-2-yl)-7-(2-methoxyethoxy)-N-1H-pyrazol-3-ylimidazo[1,2-a]pyridin-2-amine], the IC50 came to 700 nM.

With `Cc1nc(Nc2cccnn2)cc(-c2c(Nc3ccn(C)n3)nc3cccnn23)n1` [Cpd 34, N-(1-methyl-1H-pyrazol-3-yl)-3-(2-methyl-6-(3-pyridazinylamino)-4-pyrimidinyl)imidazo[1,2-b]pyridazin-2-amine], the IC50 stood at 750 nM.

Consider `COc1ccc(-c2ccc3nc(Nc4ccn[nH]4)c(-c4nc(C)nc(N)n4)n3c2)cc1CO` [Cpd 286], for which the 50% inhibitory concentration (IC50) came out at 130 nM.

As to `COCCOc1cnnc(Nc2cc(-c3c(Nc4ccc(NC(C)=O)cc4)nc4cccnn34)nc(C)n2)c1` [Cpd 53, N-(4-((3-(6-((5-(2-methoxyethoxy)-3-pyridazinyl)amino)-2-methyl-4-pyrimidinyl)imidazo[1,2-b]pyridazin-2-yl)amino)phenyl)acetamide], the IC50 came out at 20 nM.

Regarding `Cc1nc(NC(=O)N2CCN(C)CC2)cc(-c2c(Nc3cc[nH]n3)nc3cccnn23)n1` [Cpd 77, 4-methyl-N-(2-methyl-6-(2-(1H-pyrazol-3-ylamino)imidazo[1,2-b]pyridazin-3-yl)-4-pyrimidinyl)-1-piperazinecarboxamide], the IC50 came to 15300 nM.

As to `Cc1nc(N)cc(-c2c(Nc3ccn(C(=O)Nc4ccccc4C(F)(F)F)n3)nc3cccnn23)n1` [Cpd 239, 3-((3-(6-amino-2-methyl-4-pyrimidinyl)imidazo[1,2-b]pyridazin-2-yl)amino)-N-(2-(trifluoromethyl)phenyl)-1H-pyrazole-1-carboxamide], the half-inhibitory concentration (IC50) is 3010 nM.

For the compound `Cc1nc(N)cc(-c2c(Nc3cc[nH]n3)nc3ccc(OCCN4CCCC4)nn23)n1` [Cpd 73], the half-maximal inhibitory concentration (IC50) is 800 nM.

As for `Cc1nc(N)cc(-c2c(Nc3ccn(-c4ccccn4)n3)nc3ccccn23)n1` [Cpd 216, 3-(6-amino-2-methyl-4-pyrimidinyl)-N-(1-(2-pyridinyl)-1H-pyrazol-3-yl)imidazo[1,2-a]pyridin-2-amine], the IC50 is 1370 nM.

The record behind these values is patent publication US20120190666A1, “Heteroaryl Compounds as PIKK Inhibitors” (Amgen Inc., priority 2009, published 2012).
